Patent US9125898B2, “Acetam derivatives for pain relief” (NEUROTUNE AG, priority 2008, dated 2015)
Entries after “also recorded” stand apart in the source; their conditions may differ.

Tests used:
[1] = test system: oxaliplatin induced hyperalgesia in the rat; assay: Oxaliplatin induced hyperalgesia in the rat paw-pressure test; assay type: in vivo; conditions: for Paw pressure, pre-test before all treatments: baseline, drug 100 mg/kg p.o.; for Paw pressure, 1a week - 30 min / Paw pressure, 2a week - 30 min / Paw pressure, 3a week - 30 min / Paw pressure, 3a week - 4 h / Paw pressure, 3a week - 8 h / Paw pressure, 3a week - 24 h: drug 100 mg/kg p.o. once daily
Experimental: Drugs: The following substance was used: NT-13317 (batch No. RR0011-184A1 supplied by Brane Discovery Srl, Gerenzano Italy). NT-13317 was dissolved in DMSO 20%, 10% glucose and administered at the dose of 10, 30 and 100 mg/kg p.o.
Gabapentin (Sigma) was dissolved in 1% CMC (carboxymethylcellulose-Sigma) and orally administered at 100 mg/kg, and dissolved in saline and i.v. administered at 3 mg/kg.
Oxaliplatin model: A peripheral neuropathy was induced in adult rats, by administration of oxaliplatin (Tocris), at 2.4 mg/kg i.p. in saline once a day on days 1, 2, 3, 4, 5, 8, 9, 10, 11, 12, 15, 16, 17, 18, 19 (cumulative dose 36 mg/kg) according to [1].
In the first experiment NT-13317 and gabapentin were given chronically at the dose 100 mg/kg po starting 3 days before oxaliplatin and every day for 5 days/week for 3 weeks.
A dose-response experiment was then performed with NT-13317 (10, 30 and 100 mg/kg po) using the same treatment schedule.
Paw pressure test: Paw mechanical sensitivity was determined using a Randall & Selitto apparatus exerting a force that increases at constant rate (32 g/s). The stimulus at which rats withdrawn the paw was evaluated before and at different times after treatment. Results represent the mean of mechanical thresholds expressed as grams. To avoid any possible damage to the animal paw the maximum applied force was fixed at 240 g.
(§1) Statistical analysis: All experimental results are given as the mean±S.E.M. An analysis of variance, ANOVA, followed by Fisher's protected least significant difference procedure for post hoc comparison, were used to verify significance between two means of behavioral results. Data were analyzed with the StatView software for the Macintosh (1992). P values≦0.05 were considered significant.

[2] = test system: chronic constriction injury induced hyperalgesia in the rat; assay: Chronic constriction injury induced hyperalgesia in the rat (paw-pressure test); assay type: in vivo; conditions: for Paw pressure, pre-test before all treatments: baseline, drug 100 mg/kg p.o.; for Paw pressure, 5 day 30 min / Paw pressure, 10 day 30 min / Paw pressure, 14 day 30 min / Paw pressure, 14 day 4 h / Paw pressure, 14 day 8 h / Paw pressure, 15 day 24 h / Paw pressure, 18 day 3 days: 100 mg/kg p.o. once a day for 14 days
Experimental: In the repeated administration protocol, NT-13317 was orally administered at 100 mg/kg in 1% CMC once a day for 14 days starting from the day of sciatic nerve ligation.
Peripheral rat mononeuropathy (Chronic constriction injury): Neuropathy was induced according to the procedure described by Bennett and Xie (Bennett G J, Xie Y K. A peripheral mononeuropathy in rat that produces disorders of pain sensation like those seen in man. Pain 1988; 33: 87-107).
Briefly, rats were anaesthetized with chloral hydrate 400 mg/kg intraperitoneally (i.p.); under aseptic conditions, the right common sciatic nerve was exposed at the level of the middle thigh by blunt dissection. Proximal to the trifurcation, the nerve was carefully freed from the surrounding connective tissue and four chromic cat gut ligatures (4-0, Ethicon, Norderstedt, Germany) were tied loosely around it with about 1 mm spacing. After haemostasis was confirmed, the incision was closed in layers. Then animals were allowed to recover from anaesthesia and surgery and were kept one per cage with free access to water and standard laboratory chow.
as §1, with “behavioural” for “behavioral”
Data of mechanical threshold (PWT) were converted to a percentage of the maximal possible effect (% MPE), according to Veneroni, O. et al. as follows: %MPE=(left dose PWT−left pre-dose control PWT)/(left naïve PWT−left pre-dose PWT)*100
The obtained % MPE were employed for ED50 calculation (obtained by Grafit v. 5.0), defined as the dose producing 50% reversal of mechanical allodynia.

For `Cc1ccc(N2C(=O)CN3C(=O)CCC32)cc1` (stereo not shown) [NT-13317, 1-p-tolyl-tetrahydropyrrolo[1,2a]imidazole-2,5-dione], which “Dose-response experiment, 100 mg/kg” value ([1]; 100 mg/kg p.o.) is on record?
Its value is “confirmed the results of the first experiment”.

And the “Effect 4 h after administration at the end of the third week” value ([1]; 100 mg/kg p.o.)?
Its value is “retained maximal efficacy; also recorded: still a beneficial effect”.

And the “Effect 8 hr after administration at the end of the third week” value ([1]; 100 mg/kg p.o.)?
Its value is “not any more significant”.

What about the “Reduction of mechanical hyperalgesia over three weeks of treatment (in words)” value ([1]; 100 mg/kg p.o. once daily, 5 days/week for 3 weeks) of the same compound?
Its value is “statistically significant reduction of mechanical hyperalgesia; also recorded: maximal at the end of week 3”.

And the “Dose-response experiment, lower doses” value ([1]; 10 and 30 mg/kg p.o.)?
The value was “inactive”.

And the “Paw pressure, pre-test before all treatments” value ([1]; oxaliplatin i.p. group)?
Its value is 58.9 ± 3.7 g.

And the “Paw pressure, 1a week - 30 min” value ([1]; oxaliplatin i.p.)?
The value was 68.7 ± 5.2 g.

What about the “Paw pressure, 2a week - 30 min” value ([1]; oxaliplatin i.p.) of the same compound?
Its value is 74.3 ± 6.1 g.

What about the “Paw pressure, 3a week - 30 min” value ([1]; oxaliplatin i.p.) of the same compound?
The value was 79.2 ± 6.3 g.

What about the “Paw pressure, 3a week - 4 h” value ([1]; oxaliplatin i.p.) of the same compound?
Its value is 74.3 ± 4.3 g.

What about the “Paw pressure, 3a week - 8 h” value ([1]; oxaliplatin i.p.) of the same compound?
Its value is 53.5 ± 6.3 g.

And the “Paw pressure, 3a week - 24 h” value ([1]; oxaliplatin i.p.)?
Its value is 40.6 ± 5.0 g.

And the “Paw pressure, pre-test before all treatments” value ([1]; vehicle i.p. (no oxaliplatin) group)?
Its value is 60.6 ± 3.9 g.

And the “Paw pressure, 1a week - 30 min” value ([1]; vehicle i.p. (no oxaliplatin))?
Its value is 63.0 ± 4.3 g.

And the “Paw pressure, 2a week - 30 min” value ([1]; vehicle i.p. (no oxaliplatin))?
Its value is 66.1 ± 4.5 g.

What about the “Paw pressure, 3a week - 30 min” value ([1]; vehicle i.p. (no oxaliplatin)) of the same compound?
The value was 74.8 ± 5.4 g.

And the “Paw pressure, 3a week - 4 h” value ([1]; vehicle i.p. (no oxaliplatin))?
The value was 73.8 ± 4.4 g.

What about the “Paw pressure, 3a week - 8 h” value ([1]; vehicle i.p. (no oxaliplatin)) of the same compound?
The value was 68.5 ± 3.7 g.

What about the “Paw pressure, 3a week - 24 h” value ([1]; vehicle i.p. (no oxaliplatin)) of the same compound?
Its value is 69.9 ± 4.6 g.

What about the “Paw pressure, pre-test before all treatments” value ([2]; CCI group) of the same compound?
Its value is 60.7 ± 2.7 g.

What about the “Paw pressure, 5 day 30 min” value ([2]; CCI) of the same compound?
The value was 41.6 ± 4.2 g.

And the “Paw pressure, 10 day 30 min” value ([2]; CCI)?
Its value is 51.9 ± 5.2 g.

And the “Paw pressure, 14 day 30 min” value ([2]; CCI)?
Its value is 53.4 ± 5.5 g.

And the “Paw pressure, 14 day 4 h” value ([2]; CCI)?
Its value is 52.9 ± 5.2 g.

What about the “Paw pressure, 14 day 8 h” value ([2]; CCI) of the same compound?
The value was 51.6 ± 4.4 g.

And the “Paw pressure, 15 day 24 h” value ([2]; CCI)?
The value was 47.8 ± 4.7 g.

What about the “Paw pressure, 18 day 3 days” value ([2]; CCI) of the same compound?
The value was 43.6 ± 5.1 g.

What about the “Paw pressure, pre-test before all treatments” value ([2]; SHAM group) of the same compound?
Its value is 62.3 ± 3.5 g.

And the “Paw pressure, 5 day 30 min” value ([2]; SHAM)?
Its value is 57.7 ± 4.3 g.

And the “Paw pressure, 10 day 30 min” value ([2]; SHAM)?
The value was 55.8 ± 5.0 g.

What about the “Paw pressure, 14 day 30 min” value ([2]; SHAM) of the same compound?
Its value is 59.2 ± 3.9 g.

What about the “Paw pressure, 14 day 4 h” value ([2]; SHAM) of the same compound?
The value was 57.2 ± 4.4 g.

And the “Paw pressure, 14 day 8 h” value ([2]; SHAM)?
Its value is 63.2 ± 6.0 g.

What about the “Paw pressure, 15 day 24 h” value ([2]; SHAM) of the same compound?
Its value is 61.6 ± 5.2 g.

And the “Paw pressure, 18 day 3 days” value ([2]; SHAM)?
The value was 60.7 ± 6.2 g.

And the “Activity relative to gabapentin” value ([2]; i.c.v. single administration)?
The value was “ten times more active than gabapentin”.

What about the “Effect on paw pressure test after the last administration (in words)” value ([2]; p.o. 100 mg/kg once a day for 14 days from the day of sciatic nerve ligation) of the same compound?
The value was “significant effect on paw pressure test up to 24 hr”.
